Data on 1 molecule can be found in patent US20160068527A1, “The Treatment of Inflammatory Disorders” (CRESSET BIOMOLECULAR DISCOVERY LTD., priority 2013, published 2016).

The target in one test is phosphatase PP2A (Homo sapiens, UniProt P67775). Nature of the test: Inhibition of the phosphatase PP2A. In kind it is biochemical. Particulars: statement in summary, no method or data.
The test system of test [1] is human mast cells. Nature of the test: Inhibition of histamine release from human mast cells. The test is classed as cell-based. The conditions noted are these: IgE challenged human cord derived mast cells, 5 min incubation, FIG. 1. The protocol: Protocol: Human derived cord mast cells were cultured using the following method. Commercially available CD34^+ stem cells were cultured for […] in StemSpan (StemCell Technologies, Grenoble, France) serum-free medium supplemented with 100 ng/ml human SCF, 50 ng/ml IL-6 and 1 ng/ml IL-3, and 100 μg/ml penicillin/streptomycin (Peprotech, London, UK). After eight weeks, cells were cultured in StemSpan with 10% FCS. The cells were passaged into new medium every week. Cells were used for experiments between 11 and 18 weeks following confirmation by microscopic examination, c-kit and FcRε1 staining (by FACS), of mast cell morphology. For assessment of drug effects, Nalidixic Acid was incubated for 5 min with aliquots of 2×10^5 CDMCs (cord derived mast cells) cultured in 10% FCS medium. A commercially-available enzyme immunoassay was used to detect and quantify histamine released in the supernatant (SPI bio, Strasbourg, France). The assay was conducted following the manufacturer protocols. A standard curve ranging from 0.39-50 nM histamine was prepared using the reagent provided and the optical density was then read within 60 min in a microplate reader (at 405 nm). In some cases, the total cell content of histamine was established by freeze thawing of cells prior to challenge

In test [2] the test system is human mast cells. Nature of the test: Release of Annexin-A1 from human mast cells (ELISA). In kind it is cell-based. The conditions noted are these: increasing concentrations of Nalidixic acid, conditioned medium, FIG. 3. The protocol:
Human cord derived mast cells were cultured using the methodology described in Example 1. Anx-A1 protein levels in conditioned medium were determined by ELISA. Briefly, 96-well flat-bottomed ELISA plates (Greiner, Gloucestershire, UK) were coated with 1 μg anti-Anx-A1 mAb 1B in bicarbonate buffer (pH 9.6) and incubated overnight at 4° C. After washing in the bicarbonate buffer, potentially uncoated sites were blocked with 100 μL of PBS containing 1% BSA for 1h at room temperature. Sample aliquots (100 μL) or Anx-A1 standard solutions (prepared in 0.1% Tween-20 in PBS; concentration ranging between 10 and 0.001 μg/mL) were added for 1h at 37° C. After extensive washing in PBS/Tween-20, 100 μL of a polyclonal rabbit anti-human Anx-A1 serum (Zymed, Invitrogen, Paisley, UK; diluted 1:1000 in PBS/Tween-20) was added (1h at 37° C.) prior to incubation with donkey anti-rabbit 1 gG conjugated to alkaline phosphatase (1:1000; Sigma). The colour was developed by addition of 100 μL p-nitrophenyl phosphate (1 mg/mL in bicarbonate buffer, pH 9.6). Absorbance was read at 405 nm (with a 620-nm reference filter) in a microplate reader (Titertek™, Vienna, Austria). Anx-A1 levels in the study samples were read against the standard curve and expressed as ng/ml.
(ELISA stands for enzyme-linked immunosorbent assay.)

Test [3] relates to human mast cells. Put plainly: Inhibition of Prostaglandin D2 release from human mast cells. The test is classed as cell-based. Particulars: IgE challenged human cord derived mast cells, FIG. 2. As for the experimental part: Human cord derived mast cells were cultured using the methodology described in Example 1. A commercially-available enzyme immunoassay (Cayman Chemical, Michigan, USA) was used to detect and quantify PGD2 released in the supernatant. The assay was conducted following the manufacturer protocols. A standard curve ranging from 78-10,000 pg/ml PGD2 was prepared using the reagent provided and the optical density was then read within 60 min in a microplate reader (at 405 nm).

The subject of test [4] is ovalbumin induced murine model of asthma. Nature of the test: Ovalbumin induced murine model of asthma, BALF eosinophils. In kind it is in vivo, mouse. Particulars: female BALB/c mice, 0.3 mg/kg intranasal, OVA challenge. The protocol:
The effects of locally administered Nalidixic acid were studied in a mouse model of asthma. Female BALB/c mice, 8 animals per group, were sensitised to ovalbumin (OVA, 10 mg) by intra-peritoneal injection on days 1 and 14 of the study. On days 20, 21, 22 and 23 animals either received a challenge dose of ovalbumin (50 μg) to the lung given by intranasal administration or 50 μl of phosphate buffered saline (PBS, non-challenged group). Animals challenged with OVA also received either PBS vehicle or Nalidixic acid (0.3 mg/kg of body weight) given by intranasal administration for inhalation into the lung. This was administered 30 minutes prior to and 6 hours post each ovalbumin challenge on days 21 to 23 and in addition on day 24, the day between the last challenge and the terminal day of the experiment. Forty-eight hours after the final OVA challenge, mice were anaesthetised with a combination of ketamine hydrochloride (Narketan, 2 mg/mouse) and xylazine hydrochloride (Rompun, 0.07 mg/mice) and sacrificed by carotid exsanguination.
Bronchoalveolar lavage fluid (BAL) was obtained as follows. The trachea was cannulated. Phosphate Buffered Saline (PBS) was used as the lavage fluid, 3 volumes (0.4 ml; 0.3 ml; 0.3 ml; total 1 mL) were gently instilled and withdrawn on 3 consecutive occasions using a 1 ml BD syringe and then placed in an Eppendorf tube (˜1 ml). […]

Sequence of phosphatase PP2A (P67775 whole entry): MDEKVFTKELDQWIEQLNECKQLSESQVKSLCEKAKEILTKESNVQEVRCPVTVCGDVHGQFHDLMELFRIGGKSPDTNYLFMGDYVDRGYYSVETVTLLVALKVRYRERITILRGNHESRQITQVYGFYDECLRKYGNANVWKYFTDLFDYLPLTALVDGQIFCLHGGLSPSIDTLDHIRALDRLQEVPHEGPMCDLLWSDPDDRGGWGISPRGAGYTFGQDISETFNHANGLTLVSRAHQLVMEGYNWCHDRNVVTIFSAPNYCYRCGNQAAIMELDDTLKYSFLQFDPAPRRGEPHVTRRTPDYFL

As for `CCn1cc(C(=O)O)c(=O)c2ccc(C)nc21` [Nalidixic acid], at phosphatase PP2A, the “inhibition of the phosphatase PP2A” value is “potent inhibitors”. The “inhibition of histamine release” value in the test with human mast cells [1] is recorded as “dose related inhibition”. Also, the “Annexin-A1 released from human mast cells” value with human mast cells [2] is reported as “increase”. The “inhibition of PGD2 release” value in the test with human mast cells [3] is “dose related inhibition”. In addition, the “decrease in total BALF eosinophil counts compared with challenged vehicle treated animals” value in test [4] (p<0.05, FIG. 4) amounted to 47%. Moreover, the “reduction of percentage of eosinophils of the total BALF cellular count versus vehicle treated group” value in test [4] (p<0.05, FIG. 5) was 44%.
